Test results from the supplement of paper PMC11208160.

Assay: recombinant UMI read abundance after kanamycin selection (control-corrected) (log10(CPM+1)); higher = more efficient recombination; extreme values may be limits of the assay; sequences stand for … in AGTGCAGAGAAAATCGGCCAGTTTTCTCTGCCTGCAGTCCGCATGCCGTGGGACCCCTTGGGTTCTAACCTGTTGCCTAGATTTATGCAGCGGACTGCCTTTCTCCCAAAGTGATAAACCGG…AGGTTGGTTTCACT; site = the 11-nt donor
In short: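 For the IS621 bridge recombinase, a pooled Escherichia coli screen tested donor and donor-binding-loop pairs. Cells received the pair library together with a target plasmid encoding a fixed target and T7-inducible recombinase, then went onto IPTG (0.07 mM) plus kanamycin or unselected plates in duplicate. After PCR across the donor–target junction and sequencing, recombinant UMI counts were normalized to CPM, averaged, and scaled by control-derived factors. Each value is given as log10(CPM+1).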

Row | Sequence | recombinant UMI read abundance (log10)
1 | GTGGAGGCATGGACCGGTTTTCCCGGTAATCCGTATTTGTG (site GTGGAGGCTCA) | 1.41
2 | GTGGAGGCATGGACCGGTTTTCCCGGTAATCCGTATTTGTG (site GTGGAGGCTCC) | 0.284
3 | GTGGAGGCATGGACCGGTTTTCCCGGTAATCCGTATTTGTG (site GTGGAGGCTCG) | 1.53
4 | GTGGAGGCATGGACCGGTTTTCCCGGTAATCCGTATTTGTG (site GTGGAGGCTCT) | 1.15
5 | GTGGAGGCATGGACCGGTTTTCCCGGTAATCCGTATTTGTG (site GTGGAGGCTGA) | 0.461
6 | GTGGAGGCATGGACCGGTTTTCCCGGTAATCCGTATTTGTG (site GTGGAGGCTTA) | 1.42
7 | GTGGAGGCATGGACCGGTTTTCCCGGTAATCCGTATTTGTG (site GTGGAGTCTCA) | 1.82
8 | GTGGAGGCATGGACCGGTTTTCCCGGTAATCCGTATTTGTG (site GTGGATGCTCA) | 1.27
9 | GTGGAGGCATGGACCGGTTTTCCCGGTAATCCGTATTTGTG (site GTGGCGGCTCA) | 0.00613
10 | GTGGAGGCATGGACCGGTTTTCCCGGTAATCCGTATTTGTG (site GTGGGGGCTCA) | 0.918
11 | GTGGAGGCATGGACCGGTTTTCCCGGTAATCCGTATTTGTG (site GTGGTGGCTCA) | 0
12 | GTGGAGGCATGGACCGGTTTTCCCGGTAATCCGTATTTGTG (site GTGTAGGCTCA) | 1.06
13 | GTGGAGGCATGGACCGGTTTTCCCGGTAATCCGTATTTGTG (site GTTGAGGCTCA) | 0.792
14 | GTGGAGGCATGGACCGGTTTTCCCGGTAATCCGTATTTGTG (site TTGGAGGCTCA) | 0.821
15 | GTGGATGCATGGACCGGTTTTCCCGGTAATCCGTATTTGTG (site GTGGAAGCTCA) | 1.82
16 | GTGGATGCATGGACCGGTTTTCCCGGTAATCCGTATTTGTG (site GTGGACGCTCA) | 0.837
17 | GTGGATGCATGGACCGGTTTTCCCGGTAATCCGTATTTGTG (site GTGGAGGCTCA) | 0.696
18 | GTGGATGCATGGACCGGTTTTCCCGGTAATCCGTATTTGTG (site GTGGATGCTCA) | 1.67
19 | GTGGCACCATGGACCGGTTTTCCCGGTAATCCGTATTTGAG (site GTGGCACCTCT) | 0.0198
20 | GTGGCACCATGGACCGGTTTTCCCGGTAATCCGTATTTGCA (site GAGGCACCTTG) | 0
21 | GTGGCACCATGGACCGGTTTTCCCGGTAATCCGTATTTGCA (site GCGGCACCTTG) | 0
22 | GTGGCACCATGGACCGGTTTTCCCGGTAATCCGTATTTGCA (site GGGGCACCTTG) | 0
23 | GTGGCACCATGGACCGGTTTTCCCGGTAATCCGTATTTGCA (site GTGGCACCTTG) | 0
24 | GTGGCGGCATGGACCGGTTTTCCCGGTAATCCGTATTTGTG (site GTGGAGGCTCA) | 0.154
25 | GTGGCGGCATGGACCGGTTTTCCCGGTAATCCGTATTTGTG (site GTGGCGGCTCA) | 0.696

Row | Sequence | recombinant UMI read abundance (log10)
26 | GTGGCGGCATGGACCGGTTTTCCCGGTAATCCGTATTTGTG (site GTGGGGGCTCA) | 0.0119
27 | GTGGCGGCATGGACCGGTTTTCCCGGTAATCCGTATTTGTG (site GTGGTGGCTCA) | 0.00615
28 | GTGGCTGCATGGACCGGTTTTCCCGGTAATCCGTATTTGAT (site GTGGCTGCTAT) | 2.18
29 | GTGTAGGCATGGACCGGTTTTCCCGGTAATCCGTATTTGGC (site ATGTAGGCTGC) | 1.98
30 | GTGTAGGCATGGACCGGTTTTCCCGGTAATCCGTATTTGGC (site CTGTAGGCTGC) | 1.99
31 | GTGTAGGCATGGACCGGTTTTCCCGGTAATCCGTATTTGGC (site GTGTAGGCTGC) | 2.67
32 | GTGTAGGCATGGACCGGTTTTCCCGGTAATCCGTATTTGGC (site TTGTAGGCTGC) | 2.28
33 | GTGTAGGCATGGACCGGTTTTCCCGGTAATCCGTATTTGTG (site GTGAAGGCTCA) | 0.891
34 | GTGTAGGCATGGACCGGTTTTCCCGGTAATCCGTATTTGTG (site GTGCAGGCTCA) | 1.36
35 | GTGTAGGCATGGACCGGTTTTCCCGGTAATCCGTATTTGTG (site GTGGAGGCTCA) | 0.00345
36 | GTGTAGGCATGGACCGGTTTTCCCGGTAATCCGTATTTGTG (site GTGTAGGCTCA) | 1.75
37 | GTGTTTCCATGGACCGGTTTTCCCGGTAATCCGTATTTGTG (site GTGTTTCCTCA) | 0.368
38 | GTTAGAGCATGGACCGGTTTTCCCGGTAATCCGTATTTGCA (site GTTAGAGCTTG) | 3.02
39 | GTTAGAGCATGGACCGGTTTTCCCGGTAATCCGTATTTGCA (site GTTCGAGCTTG) | 1.01
40 | GTTAGAGCATGGACCGGTTTTCCCGGTAATCCGTATTTGCA (site GTTGGAGCTTG) | 1.6
41 | GTTAGAGCATGGACCGGTTTTCCCGGTAATCCGTATTTGCA (site GTTTGAGCTTG) | 1.08
42 | GTTAGAGCATGGACCGGTTTTCCCGGTAATCCGTATTTGGG (site GTTAGAGCTCC) | 0.089
43 | GTTAGCACATGGACCGGTTTTCCCGGTAATCCGTATTTGGC (site GTTAGAACTGC) | 0
44 | GTTAGCACATGGACCGGTTTTCCCGGTAATCCGTATTTGGC (site GTTAGCACTGC) | 2.11
45 | GTTAGCACATGGACCGGTTTTCCCGGTAATCCGTATTTGGC (site GTTAGGACTGC) | 0.0382
46 | GTTAGCACATGGACCGGTTTTCCCGGTAATCCGTATTTGGC (site GTTAGTACTGC) | 0
47 | GTTAGTCCATGGACCGGTTTTCCCGGTAATCCGTATTTGAA (site GTTAGTCCTTT) | 0.171
48 | GTTCAAGCATGGACCGGTTTTCCCGGTAATCCGTATTTGTC (site GTTCAAGCTGA) | 1.84
49 | GTTCATGCATGGACCGGTTTTCCCGGTAATCCGTATTTGGT (site GTACATGCTAC) | 0.216
50 | GTTCATGCATGGACCGGTTTTCCCGGTAATCCGTATTTGGT (site GTCCATGCTAC) | 0.258

Row | Sequence | recombinant UMI read abundance (log10)
51 | GTTCATGCATGGACCGGTTTTCCCGGTAATCCGTATTTGGT (site GTGCATGCTAC) | 0.477
52 | GTTCATGCATGGACCGGTTTTCCCGGTAATCCGTATTTGGT (site GTTCATGCTAC) | 0.717
53 | GTTCCCTCATGGACCGGTTTTCCCGGTAATCCGTATTTGTA (site GTTCCCTCTTA) | 2.5
54 | GTTCCGACATGGACCGGTTTTCCCGGTAATCCGTATTTGTG (site GTTCCGACTCA) | 0.0473
55 | GTTCCTTCATGGACCGGTTTTCCCGGTAATCCGTATTTGAC (site GTTCCTTCTGT) | 0.671
56 | GTTCGAACATGGACCGGTTTTCCCGGTAATCCGTATTTGGT (site GTTCGAACTAC) | 0.225
57 | GTTCGAGCATGGACCGGTTTTCCCGGTAATCCGTATTTGCG (site GTTCGAGCTAG) | 0
58 | GTTCGAGCATGGACCGGTTTTCCCGGTAATCCGTATTTGCG (site GTTCGAGCTCG) | 1.39
59 | GTTCGAGCATGGACCGGTTTTCCCGGTAATCCGTATTTGCG (site GTTCGAGCTGG) | 0.838
60 | GTTCGAGCATGGACCGGTTTTCCCGGTAATCCGTATTTGCG (site GTTCGAGCTTG) | 1.23
61 | GTTCGAGCATGGACCGGTTTTCCCGGTAATCCGTATTTGTA (site GTTCGAGCTTA) | 1.9
62 | GTTCGAGCATGGACCGGTTTTCCCGGTAATCCGTATTTGTA (site GTTCGAGCTTC) | 0.014
63 | GTTCGAGCATGGACCGGTTTTCCCGGTAATCCGTATTTGTA (site GTTCGAGCTTG) | 0.543
64 | GTTCGAGCATGGACCGGTTTTCCCGGTAATCCGTATTTGTA (site GTTCGAGCTTT) | 0.569
65 | GTTCGGACATGGACCGGTTTTCCCGGTAATCCGTATTTGTG (site GTTCGGACTCA) | 0.706
66 | GTTCTACCATGGACCGGTTTTCCCGGTAATCCGTATTTGCC (site GTTCTACCTGG) | 0
67 | GTTCTAGCATGGACCGGTTTTCCCGGTAATCCGTATTTGCA (site GTTCAAGCTTG) | 0
68 | GTTCTAGCATGGACCGGTTTTCCCGGTAATCCGTATTTGCA (site GTTCCAGCTTG) | 0.0113
69 | GTTCTAGCATGGACCGGTTTTCCCGGTAATCCGTATTTGCA (site GTTCGAGCTTG) | 0
70 | GTTCTAGCATGGACCGGTTTTCCCGGTAATCCGTATTTGCA (site GTTCTAGCTTG) | 0.902
71 | GTTCTCTCATGGACCGGTTTTCCCGGTAATCCGTATTTGTA (site ATTCTCTCTTA) | 0.848
72 | GTTCTCTCATGGACCGGTTTTCCCGGTAATCCGTATTTGTA (site CTTCTCTCTTA) | 0.989
73 | GTTCTCTCATGGACCGGTTTTCCCGGTAATCCGTATTTGTA (site GTTCTCTCTTA) | 1.83
74 | GTTCTCTCATGGACCGGTTTTCCCGGTAATCCGTATTTGTA (site TTTCTCTCTTA) | 0.822
75 | GTTGAAGCATGGACCGGTTTTCCCGGTAATCCGTATTTGAG (site GTTGAAGCTCT) | 1.61
